What was measured:
HVx mice = assay: In vivo administration of bethanechol, GTS-21 or MLA to HVx mice; colonic APC and Treg phenotypes
Procedure: Bilateral or unilateral (left or right) subdiaphragmatic vagotomy was performed as previously reported (FIGS. 5c and 5d)^52. A midline incision was made to provide wide exposure of the upper abdominal organ in male mice anesthetized with the combination of medetomidine, midazolam, and butorphanol. The bilateral subdiaphragmatic trunks of vagal nerves along the esophagus were exposed and cut. In the sham operation group, these vagal trunks were exposed but not cut. Selective hepatic vagotomy (HVx) was performed as described (FIG. 7)^25. The ventral subdiaphragmatic vagal trunk was exposed as described above under anesthesia. […]
FIG. 3 The liver-brain-gut axis regulates colonic Treg homeostasis through muscarinic signaling in APC. a-d, WT and mAChR TKO mice were subjected to Sham or HVx. e, WT and mAchR TKO mice were subjected to Sham or HVx and injected additionally treated with bethanechol (BETH; i.p. 300 μg/day) every day. Phenotypes of colonic immune cell were analyzed at day 2 after surgery (n=5/group). a, Frequency of ALDH^+ cells among MHC-II^+ colonic APCs. […] Quantification (right panel). b, Aldh1a1 and Aldh1a2 mRNA expression in colonic APC. c, e, Frequency of Foxp3^+ cells among CD4^+ cells in the colon. d, Frequency of RORγt^+ cells among colonic Foxp3^+ Tregs. […]

[1] = system: common hepatic branch of the vagus nerve; assay: pERK immunostaining in nodose ganglion after capsaicin deafferentation of the common hepatic branch of the vagus nerve; type: in vivo, mice
Procedure: The hepatic branch of the vagal trunk was freed from the surrounding tissues by paraffin paper and then wrapped for 30 minutes with cotton bud soaked with vehicle (Tween 80: olive oil=1:9) alone or 10 mg/ml capsaicin dissolved in the vehicle solution. The cotton string was removed 30 minutes later and the abdominal incision was closed^28. pEKR1/2 and c-Fos expression were analyzed immunohistochemically as reported 1. DSS-treated mice were transcardially perfused with PBS including 4% paraformaldehyde and 0.2% picric acid under anesthesia. The nodose ganglions and brains were collected, post-fixed in the same fixative for 2 hours to overnight at 4° C. and then incubated in phosphate buffer containing 30% sucrose for 48 hours. Longitudinal sections (8 μm) of NGs were cut with 48 μm intervals using a precision cryostat (Leica Microsystems, IL). Coronal sections (40 μm) of hindbrain were cut with 120 μm intervals using a freezing microtome. Rabbit polyclonal antibody to pERK1/2 (1/500) and Alexa 488-conjugated goat anti-rabbit IgG (1/500) were used. Fluorescence images were acquired with BX50 microscope and DP50 digital camera (Olympus). […] Neurons immunoreactive to pERK1/2 and c-Fos in medial NTS were counted. […] Representative fluorescence images of Alexa Fluor 488^+ neuron (green) and DAPI (blue) in NG at 1 week after injection of WGA in liver (c) and quantification (d). […]

[2] = system: hepatic vagal sensory afferents; assay: Selective hepatic vagal afferent blockade by perivagal application of capsaicin; colonic Treg and APC analysis; type: in vivo, mice; conditions: perivagal capsaicin 10 mg/ml, 30 minutes; day 2
Procedure: The hepatic branch of the vagal trunk was freed from the surrounding tissues by paraffin paper and then wrapped for 30 minutes with cotton bud soaked with vehicle (Tween 80: olive oil=1:9) alone or 10 mg/ml capsaicin dissolved in the vehicle solution. The cotton string was removed 30 minutes later and the abdominal incision was closed^28. Aldehyde dehydrogenase (ALDH) activity was determined using ALDEFLUOR staining kit according to the manufacturer's protocol. In brief, cells were suspended at a concentration of 10^6 cells/ml in ALDEFLUOR assay buffer containing activated ALDEFLUOR substrate (final concentration of 1.5 μM) with or without the ALDH inhibitor diethylaminobenzaldehyde (DEAB) (final concentration of 15 μM) and incubated at 37° C. for 30 minutes. […] Phenotypic analysis of T cell and APC in colon was performed at day 2 after application of capsaicin (c, d, n=16/group; e, f, n=8/group). a, b, Representative fluorescence images of TRPV1 (red) and DAPI (blue) in NG (a) and Th4-DRG (b). […] Quantification (right panel). d, Frequency of RORγt^+ cells among colonic Foxp3^+ Tregs. […] TRPV1^+ nerves in spinal cord (Th4-7 and Th13) and colonic immune cells were analyzed at day 7 after administration. g, Fluorescent immunohistochemistry of TRPV1^+ neuron in spinal cord (bar: 200 μm). […]

colonic APCs = assay: In vitro Treg induction assay: naive CD4+ cells with colonic APCs in the presence of muscarine; type: cell-based; conditions: colonic APCs from WT mice precultured with muscarine
Procedure: Naive CD4^+ cells were isolated from spleen in WT mice using naive CD4^+ T cell isolation kit. Naive CD4^+ cells (1×10^5) were cultured in RPMI-1640 medium supplemented with 10% FBS, 2 mM glutamine, 100 U/ml penicillin, 100 µg/ml streptomycin, and 55 μM 2-mercaptoethanol in 96 well plate.
a, Three-dimensional reconstruction of CX3CR1^+ APC (green) and enteric neurons (purple) in colon in mice. b, Three-dimensional reconstruction of MHCII^+ APC (green), enteric Tuj^+ neurons (purple), and Foxp3^+ Tregs (yellow). c, d, Anatomical diagram (c) and operative field (d) for subdiaphragmatic truncal vagotomy. e, f, Colonic T cell phenotypes in mice after VGx surgery. […] Quantification (n=6/group). […]

**Q.** Which “frequency of pTregs” value (HVx mice; HVx WT mice, BETH i.p. 300 μg/day) does the source give for `CC(C[N+](C)(C)C)OC(N)=O` (stereo not drawn) [bethanechol] here?
**A.** The value was “increased”.

**Q.** What about the “Aldh1a1 and Aldh1a2 expression in colonic APCs” value (HVx mice; HVx mice compared with sham-operated mice, BETH i.p. 300 μg/day for 2 days) of the same compound?
**A.** Its value is “restored”.

**Q.** `COc1cc(CNC(=O)CCCC/C=C/C(C)C)ccc1O` [capsaicin] was tested. Which “number of pERK positive cells in the left NG” value [1] did it give?
**A.** The value was “significantly reduced”.

**Q.** And the “aldehyde dehydrogenase activity in APCs” value [2]?
**A.** The value was “reduced”.

**Q.** What about the “colonic Treg numbers” value [2] of the same compound?
**A.** The value was “reduced”.

**Q.** `C[C@@H]1O[C@H](C[N+](C)(C)C)C[C@H]1O` [muscarine] was tested. Which “generation of Foxp3+ Tregs” value (colonic APCs) did it give?
**A.** The value was “enhanced”.

Reference: patent publication US20230293473A1, “THERAPEUTIC DRUG FOR DISEASE CAUSED BY INTESTINAL IMMUNE DISORDER” (KEIO UNIVERSITY, priority 2020, published 2023)
